One data set addresses FTase (Homo sapiens, UniProt P49354+P49356). The note with it: read-out: FTase IC50; cited from earlier work.
The test system of another data set is SH-SY5Y cells. The data set can be described thus: MTT cell viability of 6-OHDA treated SH-SY5Y cells. It counts as cell-based, human. Here is the method: To test whether inhibition of Ras farnesylation could protect SH-SY5Y cells against 6-OHDA induced oxidative stress, a Ras farnesyltransferase inhibitor, L-744,832, was used in 6-OHDA treated SH-SY5Y cells.
SH-SY5Y cells were plated in 24 well plates (ATGC, France) at the initial density of 3*10^5 cells/well. After 24 hours, cells were pretreated with L-744,832 for 6 hours at concentrations ranging from 20 nM to 40 μM. Then, 6-OHDA (Sigma) diluted in PBS was added to the wells at the concentration of 50 μM. After 17 h incubation, an MTT assay was conducted to reveal cell viability, which was measured as normalized optical densities values (treated cells/untreated control cells), where a value of 1 represents 100% neuronal survival and a value of 0.6 represents 60% survival.

A further data set deals with mammary tumors. To be noted: cited from earlier work.
For data set [1] the following is noted: cell-based assays (Law et al. 2000; Birkenkamp et al. 2004); cited from earlier work.
Another data set deals with GGTase I (Homo sapiens, UniProt P49354+P53609). To be noted: read-out: GGTase I / PGGTase-I IC50; cited from earlier work.

The source of these data is patent publication US20080153758A1, “Compounds Which Inhibits Protein Prenylation E.G. Geranylgeransferse or Farnesyltransferase Inhibitors for Treating Parkinson's Disease” (priority 2004, published 2008).

Each structure is given as a SMILES string.

On to `CSCC[C@@H](NC(=O)[C@H]1Cc2ccccc2CN1C(=O)[C@@H](NCCc1c[nH]cn1)C(C)C)C(=O)O` (relative stereo) [BMS-193269, (R*)-N-[[1,2,3,4-Tetrahydro-2-[N-[2-(1H-imidazol-4-yl)ethyl]-L-valyl]-3-isoquinolinyl]carbonyl]-L-methionine], for which, on FTase, the IC50 was 0.79 nM. As for `CSCC[C@H](NC(=O)c1ccc(NC[C@@H](N)CS)cc1)C(=O)O` [FTI-249], the IC50 at FTase is 50 nM. With `CC[C@H](C)[C@@H](CO[C@@H](Cc1ccccc1)C(=O)N[C@@H](CCS(C)(=O)=O)C(=O)OC(C)C)NC[C@@H](N)CS` [L-744,832, (2S)-2-[[(2S)-2-[[(2S,3S)-2-[[(2R)-2-Amino-3-mercaptopropyl]amino]-3-methylpentyl]oxy]-1-oxo-3-phenylpropyl]amino]-4-(methylsulfonyl)-butanoic acid 1-methylethyl ester], the “toxicity for SH-SY5Y cells” value in the data set on SH-SY5Y cells (SH-SY5Y cells) is reported as “non toxic”. The survival ratio with SH-SY5Y cells (SH-SY5Y, 6 h pretreatment with L-744,832 (20 nM to 40 μM), 6-OHDA 50 μM, 17 h, MTT, control 38%) is on record as 53%. Moreover, the “protective effect against cell death induced by ROS (in words)” value with SH-SY5Y cells (overnight treatment with 6-OHDA, FIG. 1) was “significant protective effect”. In the data set with SH-SY5Y cells (overnight treatment with 6-OHDA, SH-SY5Y, MTT), this compound returned a protective effect of 24%. For the same compound, the “p70s6k phosphorylation in mammary tumors” value with mammary tumors (in vivo) is listed as “inhibits”. Moreover, the tumor regression entry in the data set on mammary tumors (transgenic mice) was “induces tumor regression”. The reported active concentration in data set [1] was 25 to 60 µM.

For the compound `CC(C)C[C@H](NC(=O)c1ccc(NC[C@@H](N)CS)cc1-c1ccccc1)C(=O)O` [GGTI-287], the IC50 at GGTase I was 5 nM. As for `CCC(C)C(COC(Cc1ccccc1)C(=O)NC(CCS(C)(=O)=O)C(=O)O)NCC(N)CS` [L-739,750], the IC50 at FTase was 1.8 nM.

Take `CSCC[C@H](NC(=O)CN1C[C@H](N(C)C(=O)[C@H](N)CS)N=C(c2ccccc2)c2ccccc21)C(=O)O` [BZA-2B]: the IC50 at FTase is 0.85 nM. In the case of `O=[N+]([O-])[C@H]1C(c2ccccc2Br)CCN(Cc2cccnc2)[C@@H]1c1ccc(O)c(O)c1` (single isomer, unassigned; (+)) [(+)-4-(2-Bromophenyl)-2-(3,4-dihydroxyphenyl)-3-nitro-1-(3-pyridylmethyl)piperidine], the IC50 at FTase was 1.9 nM. As to `C[C@H]([C@H](C/C=C/c1nc2ccccc2o1)c1ccc2c(c1)OCO2)N(Cc1ccc2ccccc2c1)C(=O)[C@H]1OC(C(=O)O)(C(=O)O)O[C@@H]1C(=O)O` [J-104,134], at FTase, the IC50 is 5 nM. As for `COC(=O)[C@H](CCSC)NC(=O)c1ccc(NC[C@@H](N)CS)cc1-c1ccccc1` [FTI-277], the IC50 on FTase is 100 nM. Take `CC(C)C[C@H](NC(=O)CN1C[C@H](N(C)C(=O)[C@H](N)CS)N=C(c2ccccc2)c2ccccc21)C(=O)O` [BZA-4B]: the IC50 at FTase was 1.3 nM. `CSCC[C@H](NC(=O)[C@@H](NC(=O)[C@@H](NC(=O)CCP(=O)(O)C/C=C(\C)CC/C=C(\C)CCC=C(C)C)C(C)C)C(C)C)C(=O)O` [BMS-186511]: at FTase, the IC50 is 10 nM. Take `CSCC[C@H](NC(=O)c1ccc(NC(=O)[C@@H](N)CS)cc1)C(=O)O` [FTI-232, Cys-4-ABA-Met]: the IC50 on FTase is 50 nM. On to `Cn1cncc1C(N)(c1ccc(Cl)cc1)c1ccc2c(c1)c(-c1cccc(Cl)c1)cc(=O)n2C` (stereo not drawn) [R115777, 6-[Amino(4-chlorophenyl)-1-methyl-1H-imidazol-5-ylmethyl]-4-(3-chlorophenyl)-1-methyl-2(1H)-quinolinone], for which the IC50 on FTase is 0.86 nM. With `COC(=O)[C@H](CCSC)N(C(=O)c1ccccc1)C1CCN(C(=O)[C@@H](N)CS)CC1` [Methyl N-benzoyl-N-(piperidin-4-yl-N-(R)-cysteinyl)-(S) methioninate], on FTase, the IC50 was 20 nM. Consider `CC(=O)N(c1ccc(C)cc1)c1ccc(NC(=O)CCCCc2ccccc2)cc1C(=O)c1ccccc1`, for which the IC50 at FTase was 390 nM.

Regarding `C=C(CCC12OC(C(=O)O)C(O)(C(=O)O)C(C(=O)O)(O1)C(OC(=O)C=CC(C)CC(C)CC)C2O)C(OC(C)=O)C(C)Cc1ccccc1` [Zaragozic acid, L-erythro-L-Glycero-D-altro-7-trideculo-7,4-furanosonic acid, 2,7-anhydro-3,4-di-C-carboxy-8,9,10,12,13-pentadeoxy-10-methylene-12-(phenylmethyl)-,11-acetate 5-(4,6-dimethyl-2-octenoate), [5(2E,4S,6S),7S]], the IC50 at FTase was 50 nM. As to `C[C@H]([C@H](C/C=C/c1nc2ccccc2o1)c1ccc2c(c1)OCO2)N(Cc1ccc2ccccc2c1)C(=O)[C@H]1OC(C(=O)O)(C(=O)O)O[C@@H]1C(=O)O` [J-104,135], the IC50 at FTase was 3.9 nM.

Regarding `CSCCC(NC(=O)C(C=CC(C=CC(N)CS)C(C)C)Cc1ccccc1)C(=O)O` (stereo not drawn) [B956], the IC50 on FTase was 11 nM.
